In patent publication US20050074879A1, “Antisense oligonucleotide modulation of STAT3 expression” (priority 2000, published 2005):
Oligonucleotides are written 5' to 3', each unit as a sugar letter and its base; * is a phosphorothioate linkage, no mark a phosphodiester; rarer units and linkages stand in square brackets, end groups in braces. Plain capitals give the bases only. e = 2'-O-(2-methoxyethyl) (MOE); [5mC] = 5-methylcytosine; d = 2'-deoxy (DNA)

Each substance was assayed on Human STAT3 mRNA (assay: Inhibition of human STAT3 mRNA levels in A549 cells, 75 nM, real-time PCR (Table 13)). Settings: 75 nM oligonucleotide with LIPOFECTIN, real-time PCR PPS 199, percent inhibition relative to untreated control cells, average of 2 experiments.
Assay type: cell-based
Experimental: Oligonucleotide activity is assayed by quantitation of STAT3 mRNA levels by real-time PCR (RT-PCR) using the ABI PRISMS 7700 Sequence Detection System (PE-Applied Biosystems, Foster City, Calif.) according to manufacturer's instructions. This is a closed-tube, non-gel-based, fluorescence detection system which allows high-throughput quantitation of polymerase chain reaction (PCR) products in real-time. As opposed to standard PCR, in which amplification products are quantitated after the PCR is completed, products in RT-PCR are quantitated as they accumulate. This is accomplished by including in the PCR reaction an oligonucleotide probe that anneals specifically between the forward and reverse PCR primers, and contains two fluorescent dyes. A reporter dye (e.g., JOE or FAM, PE-Applied Biosystems, Foster City, Calif.) is attached to the 5′ end of the probe and a quencher dye (e.g., TAMRA, PE-Applied Biosystems, Foster City, Calif.) is attached to the 3′ end of the probe. When the probe and dyes are intact, reporter dye emission is quenched by the proximity of the 3′ quencher dye. During amplification, annealing of the probe to the target sequence creates a substrate that can be cleaved by the 5′-exonuclease activity of Taq polymerase. […] With each cycle, additional reporter dye molecules are cleaved from their respective probes, and the fluorescence intensity is monitored at regular (six-second) intervals by laser optics built into the ABI PRISM™ 7700 Sequence Detection System. In each assay, a series of parallel reactions containing serial dilutions of mRNA from untreated control samples generates a standard curve that is used to quantitate the percent inhibition after antisense oligonucleotide treatment of test samples.
RT-PCR reagents are obtained from PE-Applied Biosystems, Foster City, Calif. RT-PCR reactions are carried out by adding 25 l PCR cocktail (1× TAQMAN7 buffer A, 5.5 mM MgCl2, 300 µM each of DATP, dCTP and dGTP, 600 µM of dUTP, 100 nM each of forward primer, reverse primer, and probe, 20 U RNAse inhibitor, 1.25 units AMPLITAQ GOLD7, and 12.5 U MuLV reverse transcriptase) to 96 well plates containing 25 l poly(A) mRNA solution. The RT reaction is carried out by incubation for 30 minutes at 48° C. following a 10 minute incubation at 95° C. to activate the AMPLITAQ GOLD7, 40 cycles of a two-step PCR protocol are carried out: 95° C. for 15 seconds (denaturation) followed by 60° C. for 1.5 minutes (annealing/extension).
The compounds were analyzed for their effect on STAT3 mRNA levels in A549 cells. The human lung carcinoma cell line A549 was obtained from the American Type Culture Collection (ATCC) (Manassas, Va.). A549 cells were routinely cultured in DMEM basal media (Invitrogen Corporation, Carlsbad, Calif.) supplemented with 10% fetal calf serum (Invitrogen Corporation, Carlsbad, Calif.), 100 units/mL penicillin, and 100 ug/mL streptomycin (Invitrogen Corporation, Carlsbad, Calif.). Cells were routinely passaged by trypsinization and dilution when they reached 90% confluence.
When cells reached 65-75% confluency, they were treated with oligonucleotide. For cells grown in 96-well plates, wells were washed once with […] OPTI-MEM-1 reduced-serum medium (Invitrogen Corporation, Carlsbad, Calif.) and then treated with 130 µL of OPTI-MEM-1 containing […] LIPOFECTIN (Invitrogen Corporation, Carlsbad, Calif.) and 75 nM of the compounds in Table 13. Cells were treated and data were obtained in duplicate. Untreated cells served as controls. After 4-7 hours of treatment at 37° C., the medium was replaced with fresh medium. Cells were harvested 16-24 hours after oligonucleotide treatment. STAT3 mRNA levels in A549 cells were quantitated by real-time PCR as described by other methods herein.
Probes and primers to human STAT3 were designed to hybridize to a human STAT3 sequence, using published sequence information (incorporated herein as SEQ ID NO: 1). For STAT 3 the PCR primers were: • forward primer: […]
“337318 (antisense eG*eG*eT*e[5mC]*eT*d[5mC]*dT*dA*dG*dG*dT*d[5mC]*dA*dA*dT*e[5mC]*eT*eT*eG*eA) [compound 337318]” was tested, and the “% Inhib (inhibition of human STAT 3 mRNA levels)” value (shortened to “% Inhib”) was 74%.
In the case of “337319 (antisense eA*eA*eG*eG*eA*dG*dT*dG*dG*dG*dT*d[5mC]*dT*d[5mC]*dT*eA*eG*eG*eT*e[5mC]) [compound 337319]”, the “% Inhib” value is reported as 38%.
With “337320 (antisense e[5mC]*eT*eG*eG*e[5mC]*dA*dA*dG*dG*dA*dG*dT*dG*dG*dG*eT*e[5mC]*eT*e[5mC]*eT) [compound 337320]” the “% Inhib” value was 74%.
For “337321 (antisense eA*e[5mC]*e[5mC]*eA*e[5mC]*dA*dA*d[5mC]*dT*dG*dG*d[5mC]*dA*dA*dG*eG*eA*eG*eT*eG) [compound 337321]”, the “% Inhib” value was 80%.
“337322 (antisense eT*e[5mC]*eT*eG*eA*d[5mC]*dA*dG*dA*dT*dG*dT*dT*dG*dG*eA*eG*eA*eT*e[5mC]) [compound 337322]” was tested, and the “% Inhib” value was 69%.
“337323 (antisense eT*eG*eG*e[5mC]*eA*dT*d[5mC]*dT*dG*dA*d[5mC]*dA*dG*dA*dT*eG*eT*eT*eG*eG) [compound 337323]” was tested, and the “% Inhib” value was 79%.
For “337324 (antisense eG*e[5mC]*eA*eT*eT*dT*dG*dG*d[5mC]*dA*dT*d[5mC]*dT*dG*dA*e[5mC]*eA*eG*eA*eT) [compound 337324]”, the “% Inhib” value was 79%.
“337325 (antisense eT*eT*e[5mC]*eT*eT*dG*dG*dG*dA*dT*dT*dG*dT*dT*dG*eG*eT*e[5mC]*eA*eG) [compound 337325]” was tested, and the “% Inhib” value was 75%.
For “337326 (antisense eG*eT*e[5mC]*eA*eG*d[5mC]*dT*dG*d[5mC]*dT*d[5mC]*dG*dA*dT*dG*e[5mC]*eT*e[5mC]*eA*eG) [compound 337326]”, the “% Inhib” value was 78%.
“337327 (antisense eT*e[5mC]*e[5mC]*e[5mC]*eA*dA*dG*dA*dG*dT*dT*dT*d[5mC]*dT*d[5mC]*eT*eG*e[5mC]*e[5mC]*eA) [compound 337327]” was tested, and the “% Inhib” value was 84%.
For “337328 (antisense e[5mC]*eA*eT*eG*eT*dG*dA*dT*d[5mC]*dT*dG*dA*d[5mC]*dA*d[5mC]*e[5mC]*e[5mC]*eT*eG*eA) [compound 337328]”, the “% Inhib” value was 85%.
For “337329 (antisense eT*eA*eG*e[5mC]*e[5mC]*d[5mC]*dA*dT*dG*dT*dG*dA*dT*d[5mC]*dT*eG*eA*e[5mC]*eA*e[5mC]) [compound 337329]”, the “% Inhib” value was 88%.
For “337330 (antisense eG*e[5mC]*e[5mC]*eA*eT*dG*dT*dT*dT*dT*d[5mC]*dT*dT*dT*dG*e[5mC]*eA*eA*eA*eA) [compound 337330]”, the “% Inhib” value was 59%.
“337331 (antisense e[5mC]*e[5mC]*eT*eT*eG*d[5mC]*d[5mC]*dA*dG*d[5mC]*d[5mC]*dA*dT*dG*dT*eT*eT*eT*e[5mC]*eT) [compound 337331]” was tested, and the “% Inhib” value was 88%.
With “337334 (antisense e[5mC]*e[5mC]*e[5mC]*eA*eG*dA*dA*dG*dG*dA*dG*dA*dA*dG*d[5mC]*e[5mC]*e[5mC]*eT*eT*eG) [compound 337334]” the “% Inhib” value was 85%.
With “337335 (antisense eT*e[5mC]*e[5mC]*eA*eG*d[5mC]*d[5mC]*dA*dG*dA*d[5mC]*d[5mC]*d[5mC]*dA*dG*eA*eA*eG*eG*eA) [compound 337335]” the “% Inhib” value was 86%.
In the case of “337336 (antisense eT*e[5mC]*eT*eT*eT*dG*d[5mC]*dT*dG*d[5mC]*dT*dT*dT*d[5mC]*dA*e[5mC]*eT*eG*eA*eA) [compound 337336]”, the “% Inhib” value is reported as 79%.
In the case of “337337 (antisense eA*eT*eG*eT*eT*dG*dT*dT*d[5mC]*dA*dG*d[5mC]*dT*dG*d[5mC]*eT*eG*e[5mC]*eT*eT) [compound 337337]”, the “% Inhib” value is reported as 76%.
In the case of “337338 (antisense eA*eT*eG*eA*e[5mC]*dA*dT*dG*dT*dT*dG*dT*dT*d[5mC]*dA*eG*e[5mC]*eT*eG*e[5mC]) [compound 337338]”, the “% Inhib” value is reported as 80%.
“337339 (antisense eA*eG*e[5mC]*eA*eA*dA*dT*dG*dA*d[5mC]*dA*dT*dG*dT*dT*eG*eT*eT*e[5mC]*eA) [compound 337339]” was tested, and the “% Inhib” value was 84%.
For “337340 (antisense eA*eT*eT*eT*e[5mC]*dA*dG*d[5mC]*dA*dA*dA*dT*dG*dA*d[5mC]*eA*eT*eG*eT*eT) [compound 337340]”, the “% Inhib” value was 72%.
“337341 (antisense eT*eG*eA*eT*eG*dA*dT*dT*dT*d[5mC]*dA*dG*d[5mC]*dA*dA*eA*eT*eG*eA*e[5mC]) [compound 337341]” was tested, and the “% Inhib” value was 74%.
“337342 (antisense eT*eT*eA*eT*eA*dG*d[5mC]*d[5mC]*d[5mC]*dA*dT*dG*dA*dT*dG*eA*eT*eT*eT*e[5mC]) [compound 337342]” was tested, and the “% Inhib” value was 81%.
“337343 (antisense eT*eG*eA*eT*e[5mC]*dT*dT*dA*dT*dA*dG*d[5mC]*d[5mC]*d[5mC]*dA*eT*eG*eA*eT*eG) [compound 337343]” was tested, and the “% Inhib” value was 84%.
With “337345 (antisense eG*eG*eT*eA*eG*d[5mC]*dA*dT*d[5mC]*d[5mC]*dA*dT*dG*dA*dT*e[5mC]*eT*eT*eA*eT) [compound 337345]” the “% Inhib” value was 86%.
In the case of “337346 (antisense eA*eA*eT*eG*eT*d[5mC]*dA*dG*dG*dA*dT*dA*dG*dA*dG*eA*eT*eA*eG*eA) [compound 337346]”, the “% Inhib” value is reported as 55%.
In the case of “337347 (antisense eG*e[5mC]*e[5mC]*eT*e[5mC]*d[5mC]*dT*d[5mC]*d[5mC]*dT*dT*dG*dG*dG*dA*eA*eT*eG*eT*e[5mC]) [compound 337347]”, the “% Inhib” value is reported as 88%.
In the case of “337349 (antisense eT*eA*e[5mC]*eT*eT*dT*d[5mC]*d[5mC]*dG*dA*dA*dT*dG*d[5mC]*d[5mC]*eT*e[5mC]*e[5mC]*eT*e[5mC]) [compound 337349]”, the “% Inhib” value is reported as 65%.
With “337350 (antisense eG*eA*e[5mC]*eA*eA*dT*dA*d[5mC]*dT*dT*dT*d[5mC]*d[5mC]*dG*dA*eA*eT*eG*e[5mC]*e[5mC]) [compound 337350]” the “% Inhib” value was 84%.
With “337351 (antisense e[5mC]*eT*eA*e[5mC]*e[5mC]*dT*dG*dG*dG*dT*d[5mC]*dA*dG*d[5mC]*dT*eT*e[5mC]*eA*eG*eG) [compound 337351]” the “% Inhib” value was 74%.
“337352 (antisense eA*eT*eA*eA*eA*d[5mC]*dT*dT*dG*dG*dT*d[5mC]*dT*dT*d[5mC]*eA*eG*eG*eT*eA) [compound 337352]” was tested, and the “% Inhib” value was 80%.
With “337353 (antisense eG*eT*e[5mC]*eG*eT*dT*dG*dG*dT*dG*dT*d[5mC]*dA*d[5mC]*dA*e[5mC]*eA*eG*eA*eT) [compound 337353]” the “% Inhib” value was 81%.
With “337354 (antisense eT*eG*e[5mC]*eA*eG*dG*dT*d[5mC]*dG*dT*dT*dG*dG*dT*dG*eT*e[5mC]*eA*e[5mC]*eA) [compound 337354]” the “% Inhib” value was 62%.
“337355 (antisense eA*eT*eT*eG*e[5mC]*dT*dG*d[5mC]*dA*dG*dG*dT*d[5mC]*dG*dT*eT*eG*eG*eT*eG) [compound 337355]” was tested, and the “% Inhib” value was 61%.
